Data from patent US9382228B2 (priority 2013, dated 2016).

How the values were obtained:
M-NFS-60 cells = test: cells; settings: 67 h, read-out: M-NFS-60 cell proliferation
Procedure: M-NFS-6 Cell Proliferation Assay
A serial dilution of test compound was dispensed into a 384-well black clear bottom plate (Corning, Corning, N.Y.). Two thousand five hundred cells were added per well in 50 μL complete growth medium. […] IC50 values were calculated from a series of percent inhibition values determined at a range of inhibitor concentrations using software routines as implemented in the GraphPad Prism software package.

osteoclast precursors = test: cells; format: cell-based; settings: read-out: Osteoclast assay
Procedure: Osteoclast Tartrate-Resistant Acid Phosphatase Assay
Diluted compound was transferred to a 384-well black clear bottom plate. Two-thousand five hundred osteoclast precursors (Lonza, Walkersville, Md.) were added per well in growth media containing Receptor Activator of Nuclear Factor Kappa-beta ligand (RANKL) and M-CSF (R&D Systems, Minneapolis, Minn.). […] Tartrate-resistant acid phosphatase activity in the supernatant samples was determined using an acid phosphatase assay kit (Sigma, St. Louis, Mo.). Absorbance was measured at 550 nm using a plate reader. Data was analyzed using Prism software (Graphpad, San Diego, Calif.) to calculate IC50 values.

[1] = biological target: unphosphorylated c-KIT kinase (uKIT, Seq. ID no. 2) (Homo sapiens, UniProt P10721); test: biochemical; settings: uKIT, enzymatic assay, ATP 2000 μM
Sequence of unphosphorylated c-KIT kinase (uKIT, Seq. ID no. 2) (P10721 with tags, fused parts or gaps): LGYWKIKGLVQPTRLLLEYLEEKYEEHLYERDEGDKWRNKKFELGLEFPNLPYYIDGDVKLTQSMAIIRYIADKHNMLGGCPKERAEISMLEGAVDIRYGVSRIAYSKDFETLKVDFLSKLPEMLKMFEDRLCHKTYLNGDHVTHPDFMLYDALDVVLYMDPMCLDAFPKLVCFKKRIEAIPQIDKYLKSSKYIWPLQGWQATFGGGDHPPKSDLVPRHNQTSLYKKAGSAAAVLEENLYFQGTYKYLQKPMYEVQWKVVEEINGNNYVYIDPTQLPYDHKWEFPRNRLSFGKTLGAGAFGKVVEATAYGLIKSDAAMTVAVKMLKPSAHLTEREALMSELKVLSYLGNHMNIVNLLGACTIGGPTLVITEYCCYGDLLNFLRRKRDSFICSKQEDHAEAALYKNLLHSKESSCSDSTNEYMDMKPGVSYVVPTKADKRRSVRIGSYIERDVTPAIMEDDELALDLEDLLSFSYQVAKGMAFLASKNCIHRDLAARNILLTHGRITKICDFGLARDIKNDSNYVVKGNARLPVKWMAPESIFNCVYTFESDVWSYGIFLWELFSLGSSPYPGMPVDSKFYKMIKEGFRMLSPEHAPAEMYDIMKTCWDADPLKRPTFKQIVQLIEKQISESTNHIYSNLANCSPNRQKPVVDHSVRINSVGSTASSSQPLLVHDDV
Procedure: uKit kinase (Seq. ID No. 2) Assay
In this assay, the oxidation of NADH (thus the decrease at A340 nm) was continuously monitored spectrophometrically. […] The inhibition reaction was started by mixing serial diluted test compound with the above reaction mixture. The absorption at 340 nm was monitored continuously for 4 hours at 30° C. on Synergy 2 plate reader (BioTech).

[2] = biological target: T1, unphosphorylated c-FMS kinase (uFMS, Seq. ID no. 1) (Homo sapiens, UniProt P07333); test: biochemical; settings: uFMS, enzymatic assay, ATP 500 μM
T1 sequence (P07333 538-972): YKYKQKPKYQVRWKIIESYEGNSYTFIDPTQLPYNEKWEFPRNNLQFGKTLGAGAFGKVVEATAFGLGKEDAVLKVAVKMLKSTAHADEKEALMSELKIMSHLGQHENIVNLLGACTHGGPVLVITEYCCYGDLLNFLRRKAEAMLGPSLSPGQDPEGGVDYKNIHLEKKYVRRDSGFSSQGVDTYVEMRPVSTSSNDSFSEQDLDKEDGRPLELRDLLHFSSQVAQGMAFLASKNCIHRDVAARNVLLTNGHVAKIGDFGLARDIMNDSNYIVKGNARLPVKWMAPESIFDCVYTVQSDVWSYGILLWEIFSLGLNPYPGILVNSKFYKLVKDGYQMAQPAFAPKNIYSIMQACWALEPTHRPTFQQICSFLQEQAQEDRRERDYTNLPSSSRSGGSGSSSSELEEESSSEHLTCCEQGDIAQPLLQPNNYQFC

[3] = biological target: unphosphorylated PDGFRβ kinase (uPDGFRβ, Seq. ID No. 3) (Homo sapiens, UniProt P09619); test: biochemical; settings: uPDGFRb, enzymatic assay, ATP 500 μM
Sequence of unphosphorylated PDGFRβ kinase (uPDGFRβ, Seq. ID No. 3) (P09619 557-1106): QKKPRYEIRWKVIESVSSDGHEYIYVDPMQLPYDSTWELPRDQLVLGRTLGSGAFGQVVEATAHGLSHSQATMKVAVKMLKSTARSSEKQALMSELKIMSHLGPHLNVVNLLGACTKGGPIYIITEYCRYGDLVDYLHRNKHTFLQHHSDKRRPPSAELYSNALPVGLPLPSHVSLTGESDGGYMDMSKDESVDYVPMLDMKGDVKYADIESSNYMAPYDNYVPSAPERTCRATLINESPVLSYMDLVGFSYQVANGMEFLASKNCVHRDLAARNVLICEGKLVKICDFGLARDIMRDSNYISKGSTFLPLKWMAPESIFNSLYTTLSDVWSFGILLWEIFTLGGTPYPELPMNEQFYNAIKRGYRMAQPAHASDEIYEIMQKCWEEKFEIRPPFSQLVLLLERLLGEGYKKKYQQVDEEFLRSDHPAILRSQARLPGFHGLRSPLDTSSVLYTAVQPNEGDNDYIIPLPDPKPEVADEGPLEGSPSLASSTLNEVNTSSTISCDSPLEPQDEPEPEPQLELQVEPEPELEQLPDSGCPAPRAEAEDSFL

Row | Structure (SMILES) | IC50 (M-NFS-60 cells) [nM] | IC50 (osteoclast precursors) [nM] | IC50 [1] [nM] | IC50 [2] [nM] | IC50 [3] [nM]
1 | COC(C)(C)C(=O)NC(=O)Nc1ccc(Oc2ccnc(-c3ccc(C4CCN(C)CC4)cc3)c2)c(C)n1 [Example 133, 2-methoxy-2-methyl-N-((6-methyl-5-((2-(4-(1-methylpiperidin-4-yl)phenyl)pyridin-4-yl)oxy)pyridin-2-yl)carbamoyl)propanamide] | < 10 | 10 to 100 | 10 to 100 | < 10 | –
2 | Cc1nc(NC(=O)NC(=O)CN2CCN(C)CC2)ccc1Oc1ccnc(-c2cnn(C)c2)c1 [Example 50, N-((6-methyl-5-((2-(1-methyl-1H-pyrazol-4-yl)pyridin-4-yl)oxy)pyridin-2-yl)carbamoyl)-2-(4-methylpiperazin-1-yl)acetamide] | > 1000 | – | > 1000 | 100 to 1000 | –
3 | Cn1cc(-c2cc(Oc3ccc(NC(=O)NC(=O)C4(C#N)CC4)nc3)ccn2)cn1 [Example 27, 1-cyano-N-((5-((2-(1-methyl-1H-pyrazol-4-yl)pyridin-4-yl)oxy)pyridin-2-yl)carbamoyl)cyclopropanecarboxamide] | > 1000 | – | > 1000 | > 1000 | > 1000
4 | Cn1cc(-c2cc(Oc3ccc(NC(=O)NC(=O)C(C)(C)C#N)nc3)ccn2)cn1 [Example 30, 2-cyano-2-methyl-N-((5-((2-(1-methyl-1H-pyrazol-4-yl)pyridin-4-yl)oxy)pyridin-2-yl)carbamoyl)propanamide] | > 1000 | – | > 1000 | 100 to 1000 | > 1000
5 | COC1(C(=O)NC(=O)Nc2ccc(Oc3ccnc(-n4cnc(C)c4)c3)cn2)CC1 [Example 143, 1-methoxy-N-((5-((2-(4-methyl-1H-imidazol-1-yl)pyridin-4-yl)oxy)pyridin-2-yl)carbamoyl)cyclopropanecarboxamide] | 100 to 1000 | 10 to 100 | 100 to 1000 | 10 to 100 | –
6 | COC1(C(=O)NC(=O)Nc2ccc(Oc3ccnc(-c4cnn(C)c4)c3)cn2)CCCC1 [Example 153, 1-methoxy-N-((5-((2-(1-methyl-1H-pyrazol-4-yl)pyridin-4-yl)oxy)pyridin-2-yl)carbamoyl)cyclopentanecarboxamide] | – | < 10 | – | – | –
7 | CCC(=O)NC(=O)Nc1ccc(Oc2ccnc(-n3cnc(C)c3)c2)cn1 [Example 128, N-((5-((2-(4-methyl-1H-imidazol-1-yl)pyridin-4-yl)oxy)pyridin-2-yl)carbamoyl)propionamide] | > 1000 | 100 to 1000 | > 1000 | 100 to 1000 | –
8 | Cn1cc(-c2cc(Oc3ccc(NC(=O)NC(=O)C4CC(C)(C)C4)nc3)ncn2)cn1 [Example 5, 3,3-dimethyl-N-((5-((6-(1-methyl-1H-pyrazol-4-yl)pyrimidin-4-yl)oxy)pyridin-2-yl)carbamoyl)cyclobutanecarboxamide] | < 10 | < 10 | – | < 10 | 10 to 100
9 | COC1(C(=O)NC(=O)Nc2ccc(Oc3ccnc(-c4ccc(C5CCN(C)CC5)cc4)c3)c(C)n2)CC1 [Example 144, 1-methoxy-N-((6-methyl-5-((2-(4-(1-methylpiperidin-4-yl)phenyl)pyridin-4-yl)oxy)pyridin-2-yl)carbamoyl)cyclopropanecarboxamide] | – | < 10 | 100 to 1000 | – | –
10 | Cc1cn(-c2cc(Oc3ccc(NC(=O)NC(=O)C4(C)CCC4)nc3C)ccn2)cn1 [Example 147, 1-methyl-N-((6-methyl-5-((2-(4-methyl-1H-imidazol-1-yl)pyridin-4-yl)oxy)pyridin-2-yl)carbamoyl)cyclobutanecarboxamide] | – | 10 to 100 | – | – | –
11 | Cc1ccc(-c2cc(Oc3ccc(NC(=O)NC(=O)C4(C)CC4)nc3)ccn2)cn1 [Example 114, 1-methyl-N-((5-((6′-methyl-[2,3′-bipyridin]-4-yl)oxy)pyridin-2-yl)carbamoyl)cyclopropanecarboxamide] | – | < 10 | – | – | –
12 | Cc1ncc(-c2cc(Oc3ccc(NC(=O)NC(=O)C4(C)CC4)nc3)ccn2)s1 [Example 121, 1-methyl-N-((5-((2-(2-methylthiazol-5-yl)pyridin-4-yl)oxy)pyridin-2-yl)carbamoyl)cyclopropanecarboxamide] | – | < 10 | – | – | –
13 | COC1(C(=O)NC(=O)Nc2ccc(Oc3ccnc(-c4cnn(C)c4)c3)c(C)n2)CCCC1 [Example 150, 1-methoxy-N-((6-methyl-5-((2-(1-methyl-1H-pyrazol-4-yl)pyridin-4-yl)oxy)pyridin-2-yl)carbamoyl)cyclopentanecarboxamide] | – | 10 to 100 | 10 to 100 | – | 100 to 1000
14 | CC(C)C(=O)NC(=O)Nc1ccc(Oc2ccnc(-c3cnn(C)c3)c2)c(C(F)(F)F)n1 [Example 82, N-((5-((2-(1-methyl-1H-pyrazol-4-yl)pyridin-4-yl)oxy)-6-(trifluoromethyl)pyridin-2-yl)carbamoyl)isobutyramide] | – | 100 to 1000 | – | – | –
15 | Cc1nc(NC(=O)NC(=O)C2(C#N)CC2)ccc1Oc1ccnc(-c2cnn(C)c2)c1 [Example 28, 1-cyano-N-((6-methyl-5-((2-(1-methyl-1H-pyrazol-4-yl)pyridin-4-yl)oxy)pyridin-2-yl)carbamoyl)cyclopropanecarboxamide] | > 1000 | – | > 1000 | 100 to 1000 | > 1000
16 | Cc1nc(NC(=O)NC(=O)C(C)(C)C#N)ccc1Oc1ccnc(-c2cnn(C)c2)c1 [Example 29, 2-cyano-2-methyl-N-((6-methyl-5-((2-(1-methyl-1H-pyrazol-4-yl)pyridin-4-yl)oxy)pyridin-2-yl)carbamoyl)propanamide] | 100 to 1000 | – | > 1000 | 10 to 100 | > 1000
17 | COCCCC(=O)NC(=O)Nc1ccc(Oc2ccnc(-c3cnn(C)c3)c2)c(C)n1 [Example 25, 4-methoxy-N-((6-methyl-5-((2-(1-methyl-1H-pyrazol-4-yl)pyridin-4-yl)oxy)pyridin-2-yl)carbamoyl)butanamide] | 100 to 1000 | – | – | 10 to 100 | > 1000
18 | Cc1ncc(-c2cc(Oc3ccc(NC(=O)NC(=O)C4CCOCC4)nc3C)ccn2)s1 [Example 129, N-((6-methyl-5-((2-(2-methylthiazol-5-yl)pyridin-4-yl)oxy)pyridin-2-yl)carbamoyl)tetrahydro-2H-pyran-4-carboxamide] | 100 to 1000 | 10 to 100 | > 1000 | 10 to 100 | –
19 | CC(C)C(=O)NC(=O)Nc1ccc(Oc2ccnc(-c3cnn(C)c3)c2)cn1 [Example 24, N-((5-((2-(1-methyl-1H-pyrazol-4-yl)pyridin-4-yl)oxy)pyridin-2-yl)carbamoyl)isobutyramide] | – | < 10 | – | – | –
20 | Cc1ncc(-c2cc(Oc3ccc(NC(=O)NC(=O)C4CCOC4)nc3)ccn2)s1 (stereo not shown) [Example 115, N-((5-((2-(2-methylthiazol-5-yl)pyridin-4-yl)oxy)pyridin-2-yl)carbamoyl)tetrahydrofuran-3-carboxamide] | 100 to 1000 | 10 to 100 | > 1000 | 10 to 100 | –
21 | CCC(=O)NC(=O)Nc1ccc(Oc2ccnc(-c3cnc(C)s3)c2)cn1 [Example 98, N-((5-((2-(2-methylthiazol-5-yl)pyridin-4-yl)oxy)pyridin-2-yl)carbamoyl)propionamide] | – | 100 to 1000 | – | – | –
22 | Cn1cc(-c2cc(Oc3ccc(NC(=O)NC(=O)C4CC5CCC4O5)nc3)ccn2)cn1 (stereo not shown) [Example 111, N-((5-((2-(1-methyl-1H-pyrazol-4-yl)pyridin-4-yl)oxy)pyridin-2-yl)carbamoyl)-7-oxabicyclo[2.2.1]heptane-2-carboxamide] | – | < 10 | 100 to 1000 | – | –
23 | COC1(C(=O)NC(=O)Nc2ccc(Oc3ccnc(-c4cnc(C)s4)c3)c(C)n2)CC1 [Example 122, 1-methoxy-N-((6-methyl-5-((2-(2-methylthiazol-5-yl)pyridin-4-yl)oxy)pyridin-2-yl)carbamoyl)cyclopropanecarboxamide] | 100 to 1000 | 10 to 100 | > 1000 | 10 to 100 | –
24 | Cc1cc(-c2cc(Oc3ccc(NC(=O)NC(=O)C4CC(C)(C)C4)nc3C)ccn2)on1 [Example 14, 3,3-dimethyl-N-((6-methyl-5-((2-(3-methylisoxazol-5-yl)pyridin-4-yl)oxy)pyridin-2-yl)carbamoyl)cyclobutanecarboxamide] | – | 10 to 100 | – | – | 100 to 1000
25 | Cc1cn(-c2cc(Oc3ccc(NC(=O)NC(=O)C4CCOCC4)nc3C)ccn2)cn1 [Example 142, N-((6-methyl-5-((2-(4-methyl-1H-imidazol-1-yl)pyridin-4-yl)oxy)pyridin-2-yl)carbamoyl)tetrahydro-2H-pyran-4-carboxamide] | 100 to 1000 | 10 to 100 | 100 to 1000 | 10 to 100 | –
